Literature values in patent publication US20050043536A1, “Sulfonamides” (priority 2001, published 2005).

System: rat-isolated aorta

For CC(C)[C@H](NC(=O)[C@@H]1CSSC[C@H](NC(=O)[C@H](CC(=O)O)NC(=O)[C@@H]2CCCN2C(=O)[C@@H](NC(=O)[C@@H](N)CCC(=O)O)[C@@H](C)O)C(=O)N[C@@H](Cc2ccccc2)C(=O)N[C@@H](Cc2c[nH]c3ccccc23)C(=O)N[C@@H](CCCCN)C(=O)N[C@@H](Cc2ccc(O)cc2)C(=O)N1)C(=O)O [Human Urotensin-II], the contractile activity is listed as “the most potent contractile agonist identified to date”.
